The text below walks through data of article PMC6976569, “Structural basis of subtype-selective competitive antagonism for GluN2C/2D-containing NMDA receptors” (Nature Communications, 2020).

Common to all, as to type: cell-based
For assay [1], the target named is T1, GluN1-4a/GluN2D Met763Lys NMDARs (Rattus norvegicus, UniProt P35439+Q62645, M763K).
T1 construct: expressed in transfected cells; host or cells: Xenopus laevis oocytes injected with cRNA
As to the kind of experiment: TEVC electrophysiology on oocytes expressing GluN1-4a/GluN2D Met763Lys. The source says:
(§1) To test the validity of the structural observation for the critical involvement of the methionine/lysine residue combination (GluN2D-Met763/Lys766, and GluN2A-4m-Met738/Lys741) in preferential binding of UBP791 to GluN2D over GluN2A, we conducted site-directed mutagenesis and assessed inhibition potencies of the mutant channels by TEVC. Specifically, we converted the GluN2D residues to the equivalent ones in the GluN2A subunit and measured macroscopic currents of the GluN1-4a/GluN2D mutant NMDARs.
(§2) Plasmids (pSP or pCI_NEO) harboring rat GluN1 or GluN2 full-length subunits were linearized by restriction digestion and transcribed according to the manufacturer’s instructions (mMESSAGE mMachine SP6 or T7 kit, ThermoFisher Scientific). Recombinant rat GluN1-4a and GluN2 were expressed by co-injecting cRNA at a 1:2 (w/w) ratio into defolliculated X. laevis oocytes (amounts varied from 0.05–25 ng per oocyte). Two-electrode voltage-clamp recordings were performed 1–3 days after injection using agarose-tipped microelectrodes (0.4–1.2 MΩ) filled with 3 M KCl at a holding potential of −60 mV. The bath solution contained 5 mM HEPES, 100 mM NaCl, 0.3 mM BaCl2, 10 mM Tricine, at pH 7.4 (adjusted with KOH). […] For the statistical evaluation, we implemented pairwise F-tests to test variances, and then performed the Student t test with equal or unequal variances as determined previously, and accounted for multiple testing with the Bonferroni correction.

For assay [2], the target named is T2, GluN1-4a/GluN2D Lys766Arg NMDARs (Rattus norvegicus, UniProt P35439+Q62645, K766R).
T2 construct: expressed in transfected cells; host or cells: Xenopus laevis oocytes injected with cRNA
T2 sequence (Q62645 28-1323 K766R, other chains not shown): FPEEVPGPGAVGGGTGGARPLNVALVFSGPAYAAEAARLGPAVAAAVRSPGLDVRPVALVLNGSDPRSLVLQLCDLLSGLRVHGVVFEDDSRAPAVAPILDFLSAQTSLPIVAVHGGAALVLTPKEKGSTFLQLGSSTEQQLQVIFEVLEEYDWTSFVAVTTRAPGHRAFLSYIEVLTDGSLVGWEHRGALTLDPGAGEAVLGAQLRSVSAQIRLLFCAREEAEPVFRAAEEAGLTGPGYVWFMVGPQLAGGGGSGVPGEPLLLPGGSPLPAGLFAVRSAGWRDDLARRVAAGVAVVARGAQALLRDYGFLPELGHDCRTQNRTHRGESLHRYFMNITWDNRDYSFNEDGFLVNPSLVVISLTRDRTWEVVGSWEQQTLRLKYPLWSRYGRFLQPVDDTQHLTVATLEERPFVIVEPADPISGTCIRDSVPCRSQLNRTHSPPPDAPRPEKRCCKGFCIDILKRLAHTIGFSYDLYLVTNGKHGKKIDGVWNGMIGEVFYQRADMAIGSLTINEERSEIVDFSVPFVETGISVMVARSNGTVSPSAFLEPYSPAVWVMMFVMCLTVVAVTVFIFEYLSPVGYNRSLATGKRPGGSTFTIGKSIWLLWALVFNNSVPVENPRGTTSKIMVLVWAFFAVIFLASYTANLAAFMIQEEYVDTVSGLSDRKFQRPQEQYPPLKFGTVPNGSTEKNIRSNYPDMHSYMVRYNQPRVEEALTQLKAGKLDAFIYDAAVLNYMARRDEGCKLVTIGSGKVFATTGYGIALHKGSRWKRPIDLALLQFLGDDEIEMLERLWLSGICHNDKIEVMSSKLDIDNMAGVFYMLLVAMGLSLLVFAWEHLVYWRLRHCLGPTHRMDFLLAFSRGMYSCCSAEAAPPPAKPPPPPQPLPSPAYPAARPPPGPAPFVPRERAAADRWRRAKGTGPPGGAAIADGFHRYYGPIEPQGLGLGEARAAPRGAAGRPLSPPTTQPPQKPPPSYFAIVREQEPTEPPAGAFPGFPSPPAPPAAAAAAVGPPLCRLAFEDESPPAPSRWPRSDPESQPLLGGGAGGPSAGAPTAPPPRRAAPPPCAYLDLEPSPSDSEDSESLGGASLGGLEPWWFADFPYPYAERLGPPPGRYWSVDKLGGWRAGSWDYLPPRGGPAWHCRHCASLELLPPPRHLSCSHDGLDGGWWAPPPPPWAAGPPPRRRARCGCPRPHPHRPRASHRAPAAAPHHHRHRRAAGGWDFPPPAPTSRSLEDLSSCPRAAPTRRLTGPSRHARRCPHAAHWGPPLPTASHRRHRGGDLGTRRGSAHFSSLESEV
As to the kind of experiment: TEVC electrophysiology on oocytes expressing GluN1-4a/GluN2D Lys766Arg.
From the text: as §1, §2

Assay [3] has as its target T3, GluN1-4a/GluN2D Met763Lys/Lys766Arg NMDARs (Rattus norvegicus, UniProt Q62645, K766R/M763K).
T3 construct: expressed in transfected cells; host or cells: Xenopus laevis oocytes injected with cRNA
Description: TEVC electrophysiology on oocytes expressing GluN1-4a/GluN2D Met763Lys/Lys766Arg. The following applies: Ki mutant relative to Ki GluN2D (WT).
From the text: as §1, §2

In assay [4] the target is T4, GluN1-4a/GluN2D Met763Lys/Lys766Arg NMDARs (Rattus norvegicus, UniProt P35439+Q62645, K766R/M763K).
T4 construct: expressed in transfected cells; host or cells: Xenopus laevis oocytes injected with cRNA
T4 sequence (Q62645 28-1323 M763K/K766R, other chains not shown): as the sequence (Q62645 28-1323 K766R, other chains not shown) above, with M736K counted along it
Described as above.
From the text: as §1, §2

The structures appear in SMILES notation.

T1 sequence (Q62645 28-1323 M763K, other chains not shown): as the sequence (Q62645 28-1323 K766R, other chains not shown) above, with M736K, R739K counted along it
T3 sequence (Q62645 28-1323 M763K/K766R, other chains not shown): as the sequence (Q62645 28-1323 K766R, other chains not shown) above, with M736K counted along it

On to `O=C(O)CCc1ccc2c(ccc3cc(C(=O)N4CCN[C@@H](C(=O)O)[C@H]4C(=O)O)ccc32)c1` (relative stereo) [UBP791, (2S*,3R*)-1-(7-(2-carboxyethyl)phenanthrene-2-carbonyl)piperazine-2,3-dicarboxylic acid], for which the IC50 in assay [1] amounted to 1900 ± 60 nM; in assay [2], 1450 ± 80 nM; in assay [4], 7240 ± 440 nM. The Ki amounted to 410 ± 70 nM in assay [1], 170 ± 30 nM in assay [2] and 1150 ± 50 nM in assay [4]. The “fold difference of Ki vs. 2D (WT) (2D-M763K/K766R)” value in assay [3] is 13 fold.
